Values of other authors as cited in US20100015044A1, “Methods and compositions for diagnosis of iga-and igm-mediated kidney diseases” (priority 2005, published 2010).

How the values were obtained:
[1] = system: IgG; conditions: transfection studies in leukocytes
[2] = system: human IgA
[3] = system: other immunoglobulins
[4] = system: human rheumatoid factor
[5] = biological target: murine IgM (Mus musculus, UniProt P01872)
[6] = biological target: IgM (Homo sapiens, UniProt P01871)
[7] = system: IgA

Chain of IgM (P01871 1-433 limits assumed): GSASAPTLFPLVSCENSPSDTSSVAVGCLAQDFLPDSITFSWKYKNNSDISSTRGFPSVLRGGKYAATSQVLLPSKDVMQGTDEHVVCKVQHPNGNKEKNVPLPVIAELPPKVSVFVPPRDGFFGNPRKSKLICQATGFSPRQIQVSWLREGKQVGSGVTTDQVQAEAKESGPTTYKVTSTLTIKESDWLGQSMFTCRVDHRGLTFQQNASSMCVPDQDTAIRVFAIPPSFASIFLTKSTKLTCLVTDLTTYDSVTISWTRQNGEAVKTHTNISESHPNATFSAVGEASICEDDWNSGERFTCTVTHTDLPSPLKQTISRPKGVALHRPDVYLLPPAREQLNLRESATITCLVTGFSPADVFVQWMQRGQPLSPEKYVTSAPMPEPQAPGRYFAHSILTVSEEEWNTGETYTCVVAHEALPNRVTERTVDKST
Chain of IgM (P01591 23-159 partner): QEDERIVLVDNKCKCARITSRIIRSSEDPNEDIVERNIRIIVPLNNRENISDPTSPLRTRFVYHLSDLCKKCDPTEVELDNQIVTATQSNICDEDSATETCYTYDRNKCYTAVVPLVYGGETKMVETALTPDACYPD
Chain of murine IgM (P01872 whole entry, other chains not shown): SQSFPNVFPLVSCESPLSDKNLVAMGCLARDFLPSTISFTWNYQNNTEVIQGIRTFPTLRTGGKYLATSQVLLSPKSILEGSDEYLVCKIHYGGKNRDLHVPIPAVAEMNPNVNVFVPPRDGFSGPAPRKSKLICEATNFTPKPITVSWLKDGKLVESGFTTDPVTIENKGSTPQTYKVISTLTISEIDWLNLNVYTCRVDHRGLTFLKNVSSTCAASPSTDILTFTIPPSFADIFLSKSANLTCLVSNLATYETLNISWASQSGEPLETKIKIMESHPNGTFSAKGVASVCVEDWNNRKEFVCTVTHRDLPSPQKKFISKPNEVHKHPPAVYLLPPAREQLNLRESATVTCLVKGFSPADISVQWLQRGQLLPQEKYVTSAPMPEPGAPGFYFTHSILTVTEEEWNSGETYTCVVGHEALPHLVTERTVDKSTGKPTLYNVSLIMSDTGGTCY
Chain of murine IgM (P01592 23-159 partner limits assumed, other chains not shown): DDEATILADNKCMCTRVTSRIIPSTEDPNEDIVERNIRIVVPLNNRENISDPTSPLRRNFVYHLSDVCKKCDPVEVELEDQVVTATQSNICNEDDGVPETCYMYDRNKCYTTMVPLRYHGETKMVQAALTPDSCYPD

Molecule: FcαR1: human membrane glycoprotein Fc receptor for IgA
- binding to IgG [1]: does not bind IgG

Molecule: Sap: 50-residue synthetic peptide including the 29-residue IgA-binding region of Sir22, with C-terminal cysteine (YYALSDAKEEEPRYKALRGENQDLREKERKYQDKIKKLEEKEKNLEKKSC; Sap)
- binding to human IgA [2]: specifically binds

Molecule: YDWIPSSAW (IgM binding peptide) [YDWIPS SAW]
- binding to other immunoglobulins [3]: no binding abilities
- inhibition of human rheumatoid factor induced agglutination of IgG-coated latex beads [4]: inhibits
- binding to murine IgM [5]: high affinity

B1: human Fcα/μ receptor: human receptor constitutively expressed on the majority of B-lymphocytes and macrophages (protein, listed as Homo sapiens)
chain: MDGEATVKPGEQVPLWTHGWPPDDPSPSFAAGSSFALPQKRPHPRWLWEGSLPSRTHLRAMGTLRPSSPLCWREESSFAAPNSLKGSRLVSGEPGGAVTIQCHYAPSSVNRHQRKYWCRLGPPRWICQTIVSTNQYTHHRYRDRVALTDFPQRGLFVVRLSQLSPDDIGCYLCGIGSENNMLFLSMNLTISAGPASTLPTATPAAGELTMRSYGTASPVANRWTPGTTQTLGQGTAWDTVASTPGTSKTTASAEGRRTPGATRPAAPGTGSWAEGSVKAPAPIPESPPSKSRSMSNTTEGVWEGTRSSVTNRARASKDRREMTTTKADRPREDIEGVRIALDAAKKVLGTIGPPALVSETLAWEILPQATPVSKQQSQGSIGETTPAAGMWTLGTPAADVWITSMEAASGEGSAAGDLDAATGDRGPQATLSQTPAVGPWGPPGKESSVKRATCPGLSTLKEIKVSAVLTQNPHSLLCVSAAQEAERVTLIQMTHFLEVNPQADQLPHVERKMLQDDSLPAGASLTAPERNPGP
- binding to IgM [6]: intermediate to high affinity
- binding to IgA [7]: intermediate to high affinity
